The values below come from patent US10689408B2, “Bisphosphonic acid compound” (FUJIYAKUHIN CO., LTD., priority 2016, dated 2020).

Structures are written as SMILES.

Assay [1] deals with Vitamin D3-Induced Vascular Calcification Rat Model. Briefly: Ectopic calcification inhibitory effect in vitamin D3-induced vascular calcification rat model (amount of aortic phosphorus). The format is in vivo, Male Wistar/ST rats. The settings on record: 336 h, oral, once a day for 2 weeks, aortic phosphorus relative to control (vehicle), read-out: Rate of inhibition (%) of ectopic calcification. The text has this:
Test Example: Ectopic Calcification Inhibitory Effect in Vitamin D3-Induced Vascular Calcification Rat Model
Male Wistar/ST rats were grouped according to their body weights as an index (6 individuals per group). Cholecalciferol (Wako Pure Chemical Industries, Ltd.) was subcutaneously administered at repeated doses of 125,000 IU/kg to each rat for 3 days to induce vascular calcification. Each test substance was orally administered at repeated doses once a day for 2 weeks from the day of administration of cholecalciferol. The rats were fasted from approximately 6 hours before the administration of the test substance to approximately 2 hours thereafter. On the day following the final administration, total blood was collected from the descending aorta of each rat under isoflurane anesthesia, and then, the aorta from the aortic root to the posterior limb bifurcation was excised. The aorta was chopped, then homogenized after adding 5 mL of 1 N hydrochloric acid and left at room temperature for 1 hour. After centrifugation at 15,000 rpm at 4° C. for 15 minutes, the obtained supernatant was used as a measurement sample. The amount of phosphorus in the measurement sample was measured using Phospha C-Test Wako (Wako Pure Chemical Industries, Ltd.) and used as an index for calcification. An average value of the amounts of aortic phosphorus in each group was determined to calculate the rate of inhibition of calcification by the administration of the test substance relative to a control (vehicle administration) (Table 7).

Assay [2] has as its system carotid artery intima-media thicknesses. The settings on record: type 2 diabetic patients; cited from earlier work.
Assay [3] concerns calcification in the aorta. The settings on record: dialysis patients; cited from earlier work.

Take `C[C@H]1CC[C@@H](CC(O)(P(=O)(O)O)P(=O)(O)O)C1` (relative stereo) [Example 16, Disodium {1-hydroxy-2-[(1R*,3S*)-3-methylcyclopentyl]ethane-1,1-diyl}bisphosphonate]: the inhibition in vivo at 5 mg/kg in assay [1] is 75%. The same measure, in the same setting: the figure for `C[C@H]1CC[C@H](CC(O)(P(=O)(O)O)P(=O)(O)O)C1` (relative stereo) [Example 17, Disodium {1-hydroxy-2-[(1R*,3R*)-3-methylcyclopentyl]ethane-1,1-diyl}bisphosphonate] is 80%. Take `O=P(O)(O)C(O)(C[C@@H]1CC[C@@H](F)C1)P(=O)(O)O` (relative stereo) [Example 18, Disodium {2-[(1R*,3R*)-3-fluorocyclopentyl]-1-hydroxyethane-1,1-diyl}bisphosphonate]: the inhibition in vivo at 5 mg/kg in assay [1] amounted to 53%. Turning to `O=P(O)(O)C(O)(C[C@@H]1CC[C@@H](Oc2ccccc2)C1)P(=O)(O)O` (relative stereo) [Example 20, Disodium {1-hydroxy-2-[(1R*,3R*)-3-phenoxycyclopentyl]ethane-1,1-diyl}bisphosphonate], the inhibition in vivo at 5 mg/kg in assay [1] amounted to 46%. For the molecule `CC(C1CCC1)C(O)(P(=O)(O)O)P(=O)(O)O` (stereo not drawn) [Example 3, Disodium (2-cyclobutyl-1-hydroxypropane-1,1-diyl)bisphosphonate], in assay [1], the inhibition in vivo at 10 mg/kg was found to be 64%. Consider `CC1(CC(O)(P(=O)(O)O)P(=O)(O)O)CCC1` [Example 4, Disodium [1-hydroxy-2-(1-methylcyclobutyl)ethane-1,1-diyl]bisphosphonate], for which the inhibition in vivo at 5 mg/kg in assay [1] was 39%. Consider `O=P(O)(O)C(O)(CC1CCCC1)P(=O)(O)O` [Example 6, Disodium (2-cyclopentyl-1-hydroxyethane-1,1-diyl)bisphosphonate], for which the inhibition in vivo at 30 mg/kg in assay [1] came out at 95%. Take `O=P(O)(O)C(O)(C=C1CCCC1)P(=O)(O)O` [Example 7, Disodium (2-cyclopentylidene-1-hydroxyethane-1,1-diyl)bisphosphonate]: in assay [1], the inhibition in vivo at 5 mg/kg came out at 51%. For the molecule `CC(C1CCCC1)C(O)(P(=O)(O)O)P(=O)(O)O` (stereo not drawn) [Example 8, Disodium (2-cyclopentyl-1-hydroxypropane-1,1-diyl)bisphosphonate], in assay [1], the inhibition in vivo at 3 mg/kg amounted to 22%. Take `CC1(CC(O)(P(=O)(O)O)P(=O)(O)O)CCCC1` [Example 11, Disodium [1-hydroxy-2-(1-methylcyclopentyl)ethane-1,1-diyl]bisphosphonate]: the inhibition in vivo at 5 mg/kg in assay [1] was 57%. As to `CCC1(CC(O)(P(=O)(O)O)P(=O)(O)O)CCCC1` [Example 12, Disodium [2-(1-ethylcyclopentyl)-1-hydroxyethane-1,1-diyl]bisphosphonate], in assay [1], the inhibition in vivo at 5 mg/kg turned out to be 28%. As for `CCCC1(CC(O)(P(=O)(O)O)P(=O)(O)O)CCCC1` [Example 13, Disodium [1-hydroxy-2-(1-propylcyclopentyl)ethane-1,1-diyl]bisphosphonate], in assay [1], the inhibition in vivo at 5 mg/kg amounted to 53%.

Regarding `CC1CCCC1CC(O)(P(=O)(O)O)P(=O)(O)O` (stereo not drawn) [Example 14, Disodium [1-hydroxy-2-(2-methylcyclopentyl)ethane-1,1-diyl]bisphosphonate], the inhibition in vivo at 5 mg/kg in assay [1] is 29%. Consider `CC1CCC(CC(O)(P(=O)(O)O)P(=O)(O)O)C1` (stereo not drawn) [Example 15, Disodium [1-hydroxy-2-(3-methylcyclopentyl)ethane-1,1-diyl]bisphosphonate], for which, in assay [1], the inhibition in vivo at 5 mg/kg stood at 87%. Regarding `CC1(C)CCC(CC(O)(P(=O)(O)O)P(=O)(O)O)C1` (stereo not drawn) [Example 21, Disodium [2-(3,3-dimethylcyclopentyl)-1-hydroxyethane-1,1-diyl]bisphosphonate], the inhibition in vivo at 5 mg/kg in assay [1] is 68%. On to `O=P(O)(O)C(O)(CC1CCC(F)(F)C1)P(=O)(O)O` (stereo not drawn) [Example 23, Disodium [2-(3,3-difluorocyclopentyl)-1-hydroxyethane-1,1-diyl]bisphosphonate], for which, in assay [1], the inhibition in vivo at 5 mg/kg was 43%. Turning to `C[C@@H]1C[C@H](CC(O)(P(=O)(O)O)P(=O)(O)O)C[C@@H]1C` [Example 24, Disodium {2-[(1r,3R,4S)-3,4-dimethylcyclopentyl]-1-hydroxyethane-1,1-diyl}bisphosphonate], the inhibition in vivo at 5 mg/kg in assay [1] came to 93%.

Turning to `C[C@@H]1C[C@@H](CC(O)(P(=O)(O)O)P(=O)(O)O)C[C@@H]1C` [Example 25, Disodium {2-[(1s,3R,4S)-3,4-dimethylcyclopentyl]-1-hydroxyethane-1,1-diyl}bisphosphonate], the inhibition in vivo at 5 mg/kg in assay [1] came out at 64%. With `CC1(C)CC(CC(O)(P(=O)(O)O)P(=O)(O)O)CC1(C)C` [Example 26, Disodium [1-hydroxy-2-(3,3,4,4-tetramethylcyclopentyl)ethane-1,1-diyl]bisphosphonate], the inhibition in vivo at 5 mg/kg in assay [1] amounted to 66%. In the case of `O=P(O)(O)C(O)(CC1CCCCC1)P(=O)(O)O` [Example 27, Disodium (2-cyclohexyl-1-hydroxyethane-1,1-diyl)bisphosphonate], the inhibition in vivo at 5 mg/kg in assay [1] was 82%.

`CC(C1CCCCC1)C(O)(P(=O)(O)O)P(=O)(O)O` (stereo not drawn) [Example 28, Disodium (2-cyclohexyl-1-hydroxypropane-1,1-diyl)bisphosphonate]: in assay [1], the inhibition in vivo at 30 mg/kg was 95%.

In the case of `CC1(CC(O)(P(=O)(O)O)P(=O)(O)O)CCCCC1` [Example 30, Disodium [1-hydroxy-2-(1-methylcyclohexyl)ethane-1,1-diyl]bisphosphonate], in assay [1], the inhibition in vivo at 5 mg/kg was 47%.

In the case of `O=P(O)(O)C(O)(CC1CC2CCC1C2)P(=O)(O)O` (stereo not drawn) [Example 31, Disodium [2-(bicyclo[2.2.1]heptan-2-yl)-1-hydroxyethane-1,1-diyl]bisphosphonate], the inhibition in vivo at 3 mg/kg in assay [1] worked out at 29%. As for `CC1(C)CC(CC(O)(P(=O)(O)O)P(=O)(O)O)CC(C)(C)C1` [Example 35, Disodium [1-hydroxy-2-(3,3,5,5-tetramethylcyclohexyl)ethane-1,1-diyl]bisphosphonate], the inhibition in vivo at 5 mg/kg in assay [1] amounted to 71%. Regarding `O=P(O)(O)C(O)(CC1CCCCCC1)P(=O)(O)O` [Example 44, Disodium (2-cycloheptyl-1-hydroxyethane-1,1-diyl)bisphosphonate], in assay [1], the inhibition in vivo at 10 mg/kg was found to be 95%. In the case of `CC(O)(P(=O)(O)O)P(=O)(O)O` [etidronate, Etidronate], the “carotid artery intima-media thickness” value in assay [2] is reported as “significantly decrease the carotid artery intima-media thicknesses”. Moreover, the “inhibition of calcification in the aorta” value in assay [3] is given as “significantly inhibit calcification in the aorta”.
